From ChEMBL document CHEMBL1649194, “Pharmacokinetics of intracameral voriconazole injection” (Antimicrob Agents Chemother, 2009)

How the values were obtained:
[1] = Half life in New Zealand White rabbit eye administered as intracameral injection; format: ADME, tissue-based, Oryctolagus cuniculus; details: topical or ocular
[2] = Drug level in New Zealand White rabbit eye aqueous humor at 25 ug/25 ul administered as intracameral injection measured after 120 mins; format: ADME, tissue-based, Oryctolagus cuniculus; details: topical or ocular, read-out: Drug uptake
[3] = Half life in human eye administered as intracameral injection; format: ADME, tissue-based
[4] = Drug level in New Zealand White rabbit eye aqueous humor at 25 ug/25 ul administered as intracameral injection measured after 90 mins; format: ADME, tissue-based, Oryctolagus cuniculus; details: topical or ocular, read-out: Drug uptake
[5] = Half life in rabbit serum; format: ADME, cell-free, Oryctolagus cuniculus
[6] = Drug level in New Zealand White rabbit eye aqueous humor at 25 ug/25 ul administered as intracameral injection measured after 15 mins; format: ADME, tissue-based, Oryctolagus cuniculus; details: topical or ocular, read-out: Drug uptake
[7] = Half life in human serum; format: ADME, cell-free
[8] = Drug level in New Zealand White rabbit eye aqueous humor at 25 ug/25 ul administered as intracameral injection measured after 180 mins; format: ADME, tissue-based, Oryctolagus cuniculus; details: topical or ocular, read-out: Drug uptake
[9] = Drug level in New Zealand White rabbit eye aqueous humor at 25 ug/25 ul administered as intracameral injection measured after 60 mins; format: ADME, tissue-based, Oryctolagus cuniculus; details: topical or ocular, read-out: Drug uptake
[10] = Drug level in New Zealand White rabbit eye aqueous humor at 25 ug/25 ul administered as intracameral injection measured after 30 mins; format: ADME, tissue-based, Oryctolagus cuniculus; details: topical or ocular, read-out: Drug uptake
[11] = Half life in New Zealand White rabbit eye aqueous humor at 25 ug/25 ul administered as intracameral injection; format: ADME, tissue-based, Oryctolagus cuniculus, Aqueous humor of eyeball; details: topical or ocular
[12] = Drug level in New Zealand White rabbit eye aqueous humor at 25 ug/25 ul administered as intracameral injection measured after 150 mins; format: ADME, tissue-based, Oryctolagus cuniculus; details: topical or ocular, read-out: Drug uptake
[13] = Drug level in New Zealand White rabbit eye aqueous humor at 25 ug/25 ul administered as intracameral injection measured after 45 mins; format: ADME, tissue-based, Oryctolagus cuniculus; details: topical or ocular, read-out: Drug uptake

With `NCC[C@H](O)C(=O)N[C@@H]1C[C@H](N)[C@@H](O[C@H]2O[C@H](CN)[C@@H](O)[C@H](O)[C@H]2O)[C@H](O)[C@H]1O[C@H]1O[C@H](CO)[C@@H](O)[C@H](N)[C@H]1O` [AMIKACIN] the half-life [1] was 0.58 h.
With `C[C@@H](c1ncncc1F)[C@](O)(Cn1cncn1)c1ccc(F)cc1F` [VORICONAZOLE] the concentration at 2 h [2] was 1400 ng/mL, the half-life ([3]; eye, topical or ocular) was 3.27 h and the concentration at 1.5 h [4] was 2670 ng/mL. It also gave a half-life [5] of 2.5 h, a concentration at 0.25 h [6] of 25400 ng/mL and a half-life [7] of 6.5 h. The concentration at 3 h [8] was 150 ng/mL, the concentration at 1 h [9] was 5100 ng/mL and the concentration at 0.5 h [10] was 13500 ng/mL. The half-life [11] was 0.367 h, the concentration at 2.5 h [12] was 390 ng/mL and the concentration at 0.75 h [13] was 7730 ng/mL.
For GENTAMICIN, the t1/2 ([3]; topical_or_ocular) was 0.85 h.
